{"source": "patent US11560381B1", "about": "“Compounds and uses thereof” (Foghorn Therapeutics Inc., priority 2019, dated 2023)", "key": {"SYO1 cells": {"tested_on": "SYO1 cells", "experiment": "Cell cycle analysis (Click-iT Plus EdU Flow Cytometry Assay)", "assay_type": "cell-based", "settings": "SYO1, 200 nM or 1 μM, 8 or 13 days, compared to DMSO and lenalidomide", "procedure": "Procedure: SYO1 cells were treated for 8 or 13 days with DMSO, a BRD9 degrader (Compound 1) at 200 nM or 1 μM, or an E3 ligase binder (lenalidomide) at 200 nM. Compounds were refreshed every 5 days. Cell cycle analysis was performed using the Click-iT™ Plus EdU Flow Cytometry Assay (Invitrogen). The apoptosis assay was performed using the Annexin V-FITC Apoptosis Detection Kit (Sigma A9210). Assays were performed according to the manufacturer's protocol."}, "[1]": {"tested_on": "synovial sarcoma cell lines (SYO1, HS-SY-II, ASKA)", "experiment": "Growth of synovial sarcoma cell lines, 14-day crystal violet staining", "assay_type": "cell-based", "settings": "for inhibition of cell growth: SYO1, HS-SY-II, ASKA, treated daily, day 14, FIG. 8", "procedure": "(§1) Procedure: Cells were seeded into 6-well or 12-well plates and were treated daily with a BRD9 degrader (Compound 1), a bromo-domain BRD9 binder (Compound 2), E3 ligase binder (lenalidomide), DMSO, or staurosporin (positive control for cell killing), at indicated concentrations. The number of cells was optimized for each cell line. Growth media was refreshed every 5 days. By day 14, medium was removed, cells were washed with PBS, and stained using 500 μL of 0.005% (w/v) crystal violet solution in 25% (v/v) methanol for at least 1 hour at room temperature. Subsequently plates were scanned on an Odyssey CLx Imaging system."}, "[2]": {"tested_on": "synovial sarcoma cell lines (SYO1, Yamato, HS-SY-II, ASKA)", "experiment": "Growth of synovial sarcoma cell lines (IncuCyte confluency, crystal violet, colony imaging)", "assay_type": "cell-based", "settings": "1 μM or indicated concentrations, FIGS. 5, 6, 7", "procedure": "Cells were treated with DMSO or the BRD9 degrader, Compound 1, at indicated concentrations, and proliferation was monitored from day 7 to day 14 by measuring confluency overtime using an IncuCyte live cell analysis system (FIG. 5). Growth medium and compounds were refreshed every 3-4 days.\n(§2) Cells were seeded into 12-well plates and treated with DMSO, 1 μM BRD9 inhibitor, Compound 2 (also known as BI-7273, see Martin et al, J Med Chem. 59(10):4462-4475 (2016); see structure of Compound 2 below), or 1 μM BRD9 degrader, Compound 1.\n(§3) The number of cells was optimized for each cell line. Growth medium and compounds were refreshed every 3-5 days. SYO1, Yamato, A549, 293T and HS-SY-II cells were fixed and stained at day 11. ASKA cells were fixed and stained at day 23. Staining was done by incubation with crystal violet solution (0.5 g Crystal Violet, 27 ml 37% Formaldehyde, 100 mL 10×PBS, 10 mL Methanol, 863 dH20 to 1 L) for 30 min followed by 3× washes with water and drying the plates for at least 24 h at room temperature. Subsequently plates were scanned on an Odyssey CLx Imaging system (FIG. 6).\n(§4) Cells were seeded into 96-well ultra low cluster plate (Costar, #7007) in 200 μL complete media and treated at day 2 with DMSO, Staurosporin, or BRD9 degarder, Compound 1, at indicated doses (FIG. 7). Media and compounds were changed every 5 d and cell colonies were imaged at day 14."}, "[3]": {"tested_on": "non-synovial control cancer cell lines (RD, HCT116, Calu6)", "experiment": "Growth of non-synovial control cancer cell lines, 14-day crystal violet staining", "assay_type": "cell-based", "settings": "treated daily, day 14, FIG. 9", "procedure": "as §1"}, "[4]": {"tested_on": "non-synovial control cancer cell lines (293T, A549, G401)", "experiment": "Growth of non-synovial control cancer cell lines (crystal violet, colony imaging)", "assay_type": "cell-based", "settings": "FIGS. 5, 6, 7", "procedure": "as §2, §3, §4"}, "[5]": {"target": "BRD9 bromodomain (Flag-BRD9 P133-K239) (Homo sapiens (Human), UniProt Q9H8M2)", "sequence (Q9H8M2 133-239)": "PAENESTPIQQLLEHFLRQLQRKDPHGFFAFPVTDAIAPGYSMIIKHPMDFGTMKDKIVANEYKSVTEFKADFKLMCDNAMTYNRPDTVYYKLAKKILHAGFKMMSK", "experiment": "BRD9 bromodomain TR-FRET competition binding assay", "settings": "Table 4; 3 nM Flag-BRD9, 3.75 nM biotinylated ligand, 90 minutes at room temperature", "procedure": "Procedure: His-Flag-BRD9 (P133-K239; Swiss Prot Q9H8M2; SEQ ID NO:1 mgsshhhhhhenlyfq/gdykddddkgslevlfqg/[…] […]) was cloned, expressed, purified, and then treated with TEV protease. Cleaved His tag was removed by purification. The binding of a biotinylated small molecule ligand of BRD9 was assessed via the LANCE® TR-FRET platform (PerkinElmer), and the compounds were assayed for inhibitory activity against this interaction.\nA mixture of biotinylated-ligand and SureLight™ Allophycocyanin-Streptavidin (APC-SA, PerkinElmer AD0201) in 50 mM HEPES (pH 7.4), 50 mM NaCl, 1 mM TCEP (pH 7), 0.01% (v/v) Tween-20, 0.01% (w/v) bovine serum albumin was added to a white 384-well PerkinElmer Proxiplate Plus plate. DMSO or 3-fold serially diluted compounds were then added to the Proxiplate followed by addition of Flag-BRD9. After a 10-minute incubation at room temperature, Eu-W1024 anti-FLAG (PerkinElmer, AD0273) was added. The final reaction mixture that contained 3.75 nM biotinylated ligand, 3 nM Flag-BRD9, 7.5 nM SureLight™ Allophycocyanin-Streptavidin, and 0.2 nM Eu-W1024 anti-FLAG was incubated at room temperature for 90 minutes.\nResults: The plates were then read on a PerkinElmer Envision plate reader to determine the ratio of emission at 665 nm over 615 nm. […]"}, "[6]": {"target": "3×FLAG-NLuc-BRD9 (Nano luciferase-BRD9 fusion protein) in SYO-1 cells (Homo sapiens (Human), UniProt Q9H8M2)", "sequence (Q9H8M2 whole entry, the tested form may be a part)": "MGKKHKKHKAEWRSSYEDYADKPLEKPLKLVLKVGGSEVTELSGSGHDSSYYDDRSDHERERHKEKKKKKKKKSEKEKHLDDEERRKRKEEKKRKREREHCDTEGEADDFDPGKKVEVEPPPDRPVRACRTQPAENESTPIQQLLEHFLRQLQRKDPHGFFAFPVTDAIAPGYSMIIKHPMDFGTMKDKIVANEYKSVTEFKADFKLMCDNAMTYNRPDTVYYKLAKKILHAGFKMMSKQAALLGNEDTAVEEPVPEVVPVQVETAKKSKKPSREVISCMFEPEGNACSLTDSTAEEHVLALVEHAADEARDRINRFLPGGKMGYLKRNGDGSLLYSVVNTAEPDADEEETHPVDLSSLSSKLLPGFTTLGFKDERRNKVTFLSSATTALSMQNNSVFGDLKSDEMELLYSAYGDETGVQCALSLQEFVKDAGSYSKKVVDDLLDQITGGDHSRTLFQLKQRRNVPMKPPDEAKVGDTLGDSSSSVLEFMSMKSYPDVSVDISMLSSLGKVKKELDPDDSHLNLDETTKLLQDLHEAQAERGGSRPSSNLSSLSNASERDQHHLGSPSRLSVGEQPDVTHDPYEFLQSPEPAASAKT", "experiment": "SYO1 BRD9 NanoLuc degradation assay", "assay_type": "cell-based", "settings": "SYO-1 cells expressing 3×FLAG-NLuc-BRD9, 6 hours incubation, read-out: SYO1 BRD9-NanoLuc degradation IC50", "procedure": "Procedure: A stable SYO-1 cell line expressing 3×FLAG-NLuc-BRD9 was generated. On day 0 cells were seeded in 30 μL media into each well of 384-well cell culture plates. The seeding density was 8000 cells/well. On day 1, cells were treated with 30 nL DMSO or 30 nL of 3-fold serially DMSO-diluted compounds (10 points in duplicates with 1 μM as final top dose). Subsequently plates were incubated for 6 hours in a standard tissue culture incubator and equilibrated at room temperature for 15 minutes. Nanoluciferase activity was measured by adding 15 μL of freshly prepared Nano-Glo Luciferase Assay Reagent (Promega N1130), shaking the plates for 10 minutes and reading the bioluminescence using an EnVision reader.\nResults: The Inhibition % was calculated using the following formula: % Inhibition=100×(LuMHC−Lumsample)/(LumHC−LumLC). DMSO treated cells are employed as High Control (HC) and 1 μM of a known BRD9 degrader standard treated cells are employed as Low Control (LC)."}}, "note": "Where two headings read alike, the source gives them in different places."}
{"molecule": "COc1cc(-c2cn(C)c(=O)c3cnccc23)cc(OC)c1CN(C)CC(=O)NCCOCCOCCNc1cccc2c1C(=O)N(C1CCC(=O)NC1=O)C2=O", "note": "(stereo not drawn) [Compound 1]", "values": [{"measurement": "numbers of cells in the S-phase of the cell cycle", "setting": "SYO1 cells", "result": "reduced numbers of cells in the S-phase of the cell cycle"}, {"measurement": "inhibition of cell growth", "setting": "[1]", "result": "inhibition of the growth of the cells"}, {"measurement": "growth inhibition compared among tested agents", "setting": "[1]; all synovial cell lines, versus Compound 2 and lenalidomide", "result": "most significant growth inhibition in all synovial cell lines"}, {"measurement": "inhibition of cell growth", "setting": "[2]", "result": "inhibition of the growth of the cells"}, {"measurement": "inhibition of cell growth", "setting": "[3]", "result": "did not result in inhibition of the growth"}, {"measurement": "inhibition of cell growth", "setting": "[4]", "result": "does not result in inhibition of the growth"}]}
{"molecule": "COc1cc(-c2cn(C)c(=O)c3cnccc23)cc(OC)c1CN(C)C", "note": "[Compound 2]", "values": [{"measurement": "inhibition of cell growth", "setting": "[1]", "result": "inhibition of the growth of the cells"}, {"measurement": "inhibition of cell growth", "setting": "[2]", "result": "inhibition of the growth of the cells"}, {"measurement": "inhibition of cell growth", "setting": "[3]", "result": "did not result in inhibition of the growth"}, {"measurement": "inhibition of cell growth", "setting": "[4]", "result": "does not result in inhibition of the growth"}]}
{"molecule": "COc1cc(-c2cn(C)c(=O)c3cnccc23)cc(OC)c1CN1CC2(CCN(C(=O)CCOCCOc3cccc4c3C(=O)N(C3CCC(=O)NC3=O)C4=O)C2)C1", "note": "(stereo not drawn) [Compound D90]", "values": [{"measurement": "IC50", "setting": "[5]", "result": "< 10", "unit": "nM"}, {"measurement": "DC50", "setting": "[6]; Table 5A", "result": "10 to 100", "unit": "nM"}]}
{"molecule": "COc1cc(-c2cn(C)c(=O)c3cnccc23)cc(OC)c1CN1CCC(COC2CCN(C(=O)CCOCCOc3cccc4c3C(=O)N(C3CCC(=O)NC3=O)C4=O)C2)CC1", "note": "(stereo not drawn) [Compound D94]", "values": [{"measurement": "IC50", "setting": "[5]", "result": "10 to 100", "unit": "nM"}, {"measurement": "DC50", "setting": "[6]; Table 5A", "result": "10 to 100", "unit": "nM"}]}
{"molecule": "COc1cc(-c2cn(C)c(=O)c3cnccc23)cc(OC)c1CN1CCC2(CC1)CCN(C(=O)CCC#Cc1ccc3c(c1)C(=O)N(C1CCC(=O)NC1=O)C3=O)C2", "note": "(stereo not drawn) [Compound D220]", "values": [{"measurement": "DC50", "setting": "[6]; Table 5B", "result": "< 10", "unit": "nM"}]}
{"molecule": "COc1cc(-c2cn(C)c(=O)c3cnccc23)cc(OC)c1CN(C)CCCCNC1CC2(CCN(c3ccc4c(c3)C(=O)N(C3CNC(=O)CC3=O)C4=O)CC2)C1", "note": "(stereo not drawn) [Compound D247]", "values": [{"measurement": "DC50", "setting": "[6]; Table 5B", "result": "< 10", "unit": "nM"}]}
{"molecule": "COc1cc(-c2cn(C)c(=O)c3cnccc23)cc(OC)c1CN(C)CCCCN1CC2(CCN(c3ccc4c(c3)C(=O)N(C3CCC(=O)NC3=O)C4=O)C2)C1", "note": "(stereo not drawn) [Compound D248]", "values": [{"measurement": "DC50", "setting": "[6]; Table 5B", "result": "10 to 100", "unit": "nM"}]}
{"molecule": "COc1cc(-c2cn(C)c(=O)c3cnccc23)cc(OC)c1CN1CC(n2cc(COCc3ccc4c(c3)C(=O)N(C3CCC(=O)NC3=O)C4=O)nn2)C1", "note": "(stereo not drawn) [Compound D298]", "values": [{"measurement": "DC50", "setting": "[6]; Table 5B", "result": "< 10", "unit": "nM"}]}
{"molecule": "COc1cc(-c2cn(C)c(=O)c3[nH]ccc23)cc(OC)c1CN1CCC2(CC1)CN(c1ccc3c(c1)C(=O)N(C1CCC(=O)NC1=O)C3)C2", "note": "(stereo not drawn) [Compound D419]", "values": [{"measurement": "DC50", "setting": "[6]; Table 5C", "result": "< 10", "unit": "nM"}]}
{"molecule": "COc1cc(-c2cn(C)c(=O)c3c[nH]nc23)cc(OC)c1CN1CCC2(CC1)CN(c1ccc3c(c1)C(=O)N(C1CCC(=O)NC1=O)C3)C2", "note": "(stereo not drawn) [Compound D420]", "values": [{"measurement": "DC50", "setting": "[6]; Table 5C", "result": "< 10", "unit": "nM"}]}
{"molecule": "COc1cc(-c2cc(C(F)F)c(=O)n(C)c2)cc(OC)c1CN1CC(C#Cc2ccc3c(c2)C(=O)N(C2CCC(=O)NC2=O)C3)C1", "note": "(stereo not drawn) [Compound D439]", "values": [{"measurement": "DC50", "setting": "[6]; Table 5C", "result": "< 10", "unit": "nM"}]}
{"molecule": "COc1cc(-c2cc(C)c(=O)n(C)c2)cc(OC)c1CN1CC(C)(C#Cc2ccc3c(c2)C(=O)N(C2CCC(=O)NC2=O)C3)C1", "note": "(stereo not drawn) [Compound D450]", "values": [{"measurement": "DC50", "setting": "[6]; Table 5C", "result": "< 10", "unit": "nM"}]}
{"molecule": "COc1cc(-c2cc(C)c(=O)n(C)c2)cc(OC)c1CN1CC(C#Cc2ccc3c(c2)C(=O)N(C2CCC(=O)NC2=O)C3)C1C", "note": "(stereo not drawn) [Compound D453]", "values": [{"measurement": "DC50", "setting": "[6]; Table 5C", "result": "< 10", "unit": "nM"}]}
{"molecule": "C/C=C/Cn1cc(-c2ccc(CN3CCN(S(=O)(=O)c4ccc5c(c4)C(=O)N(C4CCC(=O)NC4=O)C5)CC3)c(Cl)c2)n2cncc2c1=O", "note": "(stereo not drawn) [Compound D464]", "values": [{"measurement": "DC50", "setting": "[6]; Table 5C", "result": "≥ 1000", "unit": "nM"}]}
